Values belong to the compound of their own block, whether it stands above or below them.
Experiments:
[1] = Solubility evaluation of Form 1 and Form 2 in DCM/MeOH; format: physicochemical; settings: for concentration dissolved in DCM/MeOH: room temperature or 50° C.
Description: The solubility of Form 1 and Form 2 was evaluated in the same vehicle. Form 1 or Form 2 was added into DCM/MeOH and stirred to dissolve at room temperature or 50° C. A certain amount of HPMC-AS was then added into solution at room temperature, if a clear solution was obtained. Form 2 dissolved in DCM/MeOH at a concentration of 13 mg/mL, while Form 1 dissolved in a lower concentration, 10 mg/mL.

[2] = Stability study of Form 1 on storage (XRPD and HPLC); format: physicochemical; settings: 80° C. for one day; 25° C./60% RH and 40° C./75% RH for one week and one month
Description: Physicochemical stability was evaluated for Form 1 via storing samples under 80° C. for one day, 25° C./60% RH and 40° C./75% RH for one week and one month.

[3] = Dynamic vapor sorption (DVS); format: physicochemical; settings: 25° C.
Description: DVS studies were performed using a DVS Intrinsic (SMS, UK). 10 to 20 mg of compound was transferred into the DVS and the weight change recorded with respect to a varying atmospheric humidity at 25° C. using the following parameters: • Drying at 25° C. until dm/dt<±0.002%/min • Min time: 10 min, Max time: 180 min • Equilibrium: 60 min • Cycle: 0, 5, 10, 20, 30, 40, 50, 60, 70, 80, 90, 80, 70, 60, 50, 40, 30, 20, 10, 5, 0 • Characterize the sample after the DVS experiment by XRPD

[4] = Critical water activity study between Form 1 and Form 7; format: physicochemical; settings: for XRPD result after slurry: RT, overnight
Text: Critical water activity between anhydrous From 1 and hydrous Form 7 was investigated via slurry in MeOH/H2O system with various water activities at room temperature. After stirring overnight, the solids were isolated and analyzed by XRPD.

[5] = Thermodynamic stability relationship of anhydrates (heating; slurry competition); format: physicochemical; settings: for XRPD result, slurry competition Form 6 and Form 1: five days
Description: As a result, slurry competition was performed for Form 6 and Form 1 in acetone and THF systems at 5° C., RT and 50° C. After stirring at desired temperature for five days, the solids were isolated and analyzed by XRPD.

human S1P1 = biological target: T1, human S1P1 (Homo sapiens, UniProt P21453); experiment: GTPγS binding assay (scintillation proximity assay); format: biochemical; settings: S1P1 membrane from CHO cells expressing full-length human S1P1; GTPγ35S, 60 minutes
T1 construct: CHO-Ki Gαqi5 cells expression full-length human S1P1; expressed in transfected cells; host or cells: CHO-K1 Gαqi5 cells (printed 'CHO-Ki Gαqi5'), membranes
Description: S1P1 membrane is prepared from CHO-Ki Gαqi5 cells expression full-length human S1P1. Scintillation proximity assay (SPA) is performed by incubating membranes, GTPγ^35S, and compounds at various concentrations for 60 minutes. Wheat germ agglutinin-coated SPA beads are added and incubated for 60 minutes before centrifugation and scintillation counting. EC50 data for Compound 1 found to be <1 μM.

[6] = Form 2 stability via slurry in acetone and methanol/water; format: physicochemical; settings: solids isolated at 1 h, 3 h, 5 h, 29 h
Description: Form 2 stability was also evaluated via slurry in acetone and methanol/water at RT. Solids were isolated at 1 h, 3 h, 5 h and 29 h time points.

T1 sequence (P21453 whole entry): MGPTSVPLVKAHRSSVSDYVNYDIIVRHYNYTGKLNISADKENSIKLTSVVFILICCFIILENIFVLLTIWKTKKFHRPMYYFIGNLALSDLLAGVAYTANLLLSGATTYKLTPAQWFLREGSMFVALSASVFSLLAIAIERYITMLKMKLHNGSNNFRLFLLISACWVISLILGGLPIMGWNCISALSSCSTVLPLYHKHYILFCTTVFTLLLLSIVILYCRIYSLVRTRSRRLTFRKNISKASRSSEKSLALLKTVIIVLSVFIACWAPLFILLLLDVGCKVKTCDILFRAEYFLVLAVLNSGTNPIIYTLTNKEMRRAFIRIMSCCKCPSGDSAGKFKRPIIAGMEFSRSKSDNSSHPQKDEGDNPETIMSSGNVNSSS

EC50 (human S1P1): < 1000 nM
Structure (SMILES): O=C1CC[C@@H](Oc2cc(Cl)c(-c3noc(-c4cn5cc(C(F)(F)F)cc(Cl)c5n4)n3)cc2Cl)CN1 [Compound 1, (R)-5-(2,5-dichloro-4-(5-(8-chloro-6-(trifluoromethyl)imidazo[1,2-a]pyridin-2-yl)-1,2,4-oxadiazol-3-yl)phenoxy)piperidin-2-one]

Result (dissolution), Experiment A ([1]; DCM 3.679 g, MeOH 0.752 g, Form 2 0.05 g, HPMC-AS 0.150 g): Clear at room | solubility compared with Form 1 ([1]; DCM/MeOH vehicle): better solubility than Form 1 | concentration dissolved in DCM/MeOH [1]: 13 mg/mL
Structure (SMILES): O=C1CC[C@@H](Oc2cc(Cl)c(-c3noc(-c4cn5cc(C(F)(F)F)cc(Cl)c5n4)n3)cc2Cl)CN1 [Form 2, (R)-5-(2,5-dichloro-4-(5-(8-chloro-6-(trifluoromethyl)imidazo[1,2-a]pyridin-2-yl)-1,2,4-oxadiazol-3-yl)phenoxy)piperidin-2-one]
XRPD analysis after slurry ([6]; slurry in acetone at RT): Form 1 formation in both solvents within one hour | XRPD analysis after slurry ([6]; slurry in methanol/water at RT): Form 1 formation in both solvents within one hour

XRPD result after slurry ([4]; MeOH/H2O 0:1000, Aw 1.0): Form 1 | XRPD result after slurry ([4]; MeOH/H2O 219:781, Aw 0.9): Form 1 | XRPD result after slurry ([4]; MeOH/H2O 418:582, Aw 0.8): Form 1 | XRPD result after slurry ([4]; MeOH/H2O 573:427, Aw 0.7): Form 1 | XRPD result after slurry ([4]; MeOH/H2O 687:313, Aw 0.6): Form 1 | XRPD result after slurry ([4]; MeOH/H2O 775:225, Aw 0.5): Form 1 | XRPD result after slurry ([4]; MeOH/H2O 844:156, Aw 0.4): Form 1 | XRPD result after slurry ([4]; MeOH/H2O 893:107, Aw 0.3): Form 1 | XRPD result after slurry ([4]; MeOH/H2O 937:63, Aw 0.2): Form 1 | XRPD result after slurry ([4]; MeOH/H2O 1000:0, Aw 0.0): Form 1 | form conversion in MeOH/H2O slurry ([4]; all water activities at RT, stirring overnight): converted to Form 1
Structure (SMILES): O=C1CC[C@@H](Oc2cc(Cl)c(-c3noc(-c4cn5cc(C(F)(F)F)cc(Cl)c5n4)n3)cc2Cl)CN1 [Form 7, (R)-5-(2,5-dichloro-4-(5-(8-chloro-6-(trifluoromethyl)imidazo[1,2-a]pyridin-2-yl)-1,2,4-oxadiazol-3-yl)phenoxy)piperidin-2-one]

Further lines, the compound ahead of its results:

Structure (SMILES): O=C1CC[C@@H](Oc2cc(Cl)c(-c3noc(-c4cn5cc(C(F)(F)F)cc(Cl)c5n4)n3)cc2Cl)CN1 [Form 1, (R)-5-(2,5-dichloro-4-(5-(8-chloro-6-(trifluoromethyl)imidazo[1,2-a]pyridin-2-yl)-1,2,4-oxadiazol-3-yl)phenoxy)piperidin-2-one]
Result (dissolution on heating), Experiment E ([1]; DCM 1.633 g, MeOH 0.334 g, Form 1 0.0165 g, AcOH 0.0022 g, HPMC-AS 0.0549 g): Dissolved at 50 °C | Result (clarity after stirring for 64 h), Experiment E ([1]; DCM 1.633 g, MeOH 0.334 g, Form 1 0.0165 g, AcOH 0.0022 g, HPMC-AS 0.0549 g, after stirring for 64 h): Clear at 25 °C after | Result (dissolution), Experiment C ([1]; DCM 1.633 g, MeOH 0.334 g, Form 1 0.02 g, AcOH 0.0022 g, HPMC-AS 0.0664 g): Hazy at 50 °C | Result (dissolution on heating), Experiment D ([1]; DCM 4.083 g, MeOH 0.834 g, Form 1 0.0414 g, HPMC-AS 0.1378 g): Dissolved at 50 °C | Result (clarity after stirring for 64 h), Experiment D ([1]; DCM 4.083 g, MeOH 0.834 g, Form 1 0.0414 g, HPMC-AS 0.1378 g, after stirring for 64 h): Clear at 25 °C after | Result (dissolution), Experiment B ([1]; DCM 4.083 g, MeOH 0.835 g, Form 1 0.05 g, HPMC-AS 0.166 g): Hazy at 50 °C | concentration dissolved in DCM/MeOH [1]: 10 mg/mL | change in HPLC purity after storage (chemical stability) [2]: no substantial change in HPLC purity | form change after storage (XRPD) [2]: no form change | hygroscopicity ([3]; DVS): slightly hygroscopic | Post-DVS analysis by XRPD ([3]; after DVS cycle 0-90-0% RH): no change | moisture uptake ([3]; between 0-80% RH): 0.3% | relative stability versus Form 7 ([4]; MeOH/H2O slurry, water activities 0.0-1.0, RT): more stable under selected conditions | XRPD result, slurry competition Form 6 and Form 1 ([5]; THF, 5° C.): Form 1 | XRPD result, slurry competition Form 6 and Form 1 ([5]; THF, 50° C.): Form 1 | XRPD result, slurry competition Form 6 and Form 1 ([5]; THF, room temperature): Form 1 | XRPD result, slurry competition Form 6 and Form 1 ([5]; acetone, 5° C.): Form 1 | XRPD result, slurry competition Form 6 and Form 1 ([5]; acetone, 50° C.): Form 1 | XRPD result, slurry competition Form 6 and Form 1 ([5]; acetone, room temperature): Form 1

Structure (SMILES): O=C1CC[C@@H](Oc2cc(Cl)c(-c3noc(-c4cn5cc(C(F)(F)F)cc(Cl)c5n4)n3)cc2Cl)CN1 [Form 5, (R)-5-(2,5-dichloro-4-(5-(8-chloro-6-(trifluoromethyl)imidazo[1,2-a]pyridin-2-yl)-1,2,4-oxadiazol-3-yl)phenoxy)piperidin-2-one]
form change during heating ([5]; heating, exothermic signal observed): Form 6 formed at elevated temperature

Structure (SMILES): O=C1CC[C@@H](Oc2cc(Cl)c(-c3noc(-c4cn5cc(C(F)(F)F)cc(Cl)c5n4)n3)cc2Cl)CN1 [Form 6, (R)-5-(2,5-dichloro-4-(5-(8-chloro-6-(trifluoromethyl)imidazo[1,2-a]pyridin-2-yl)-1,2,4-oxadiazol-3-yl)phenoxy)piperidin-2-one]
thermodynamic relationship to Form 5 ([5]; according to the Burger-Ramberger Rules): monotropically related to Form 5 and is thermodynamically more stable

Reference: patent publication US12612401B2, “Crystalline forms of an S1P receptor modulator” (Oppilan Pharma Limited, priority 2022, dated 2026)
